Test systems include 786-0; CAKI-1; CCRF-CEM; HCT-15; HL-60; IGROV-1; M14; MOLT-4; OVCAR-4; SF-268; SF-295; SK-MEL-28; SK-OV-3; SN12C; SNB-19; SW-620; TK-10; U-251; UACC-62; UO-31.
What all share (experiment): NCI tumour cell line growth inhibition, 48 h

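A five-concentration, 48-hour dose response in 96-well plates underlies each endpoint, interpolated linearly between surrounding concentrations. Abbreviation: GI50, concentration required for 50% inhibition of growth.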 The source made the active and inactive calls. Rule as the data show it: active = GI50 up to about 1.1 µM and inactive = higher. Where only a bound is given, the exact number is not on record here.

`[N-]=[N+]=Nc1ccccc1C(=O)N1C(=O)c2ccccc2C(=O)N(C(=O)c2ccccc2N=[N+]=[N-])c2ccccc21`: the GI50 with 786-0 was 28.4 µM (inactive); in the experiment on CAKI-1, 59 µM (inactive); in the experiment with CCRF-CEM, 11.1 µM (inactive); with HCT-15, 54.8 µM; in the experiment on HL-60, > 10 µM (inactive); in the experiment on IGROV-1 it was 46.9 µM (inactive). Moreover, the GI50 in the experiment with M14 was > 100 µM (inactive); in the experiment with MOLT-4, 13.9 µM (inactive); with OVCAR-4, > 100 µM (inactive); in the experiment with SF-268 it was 71 µM (inactive); with SF-295, 41.9 µM (inactive); in the experiment on SK-MEL-28, > 100 µM (inactive). The GI50 is 31.2 µM (inactive) in the experiment with SK-OV-3; 82.8 µM (inactive) in the experiment on SN12C; 60.4 µM (inactive) in the experiment with SNB-19; 32.1 µM (inactive) with SW-620; 67.5 µM (inactive) in the experiment on TK-10; 40 µM (inactive) in the experiment with U-251. Further, the GI50 in the experiment with UACC-62 is 34.4 µM (inactive); in the experiment with UO-31 it was > 100 µM (inactive).
Regarding `CC(=O)O/N=C(Cl)/C(Cl)=N/OC(C)=O`, the GI50 in the experiment with 786-0 is > 100 µM (inactive); in the experiment on CAKI-1 it was > 100 µM (inactive); in the experiment on CCRF-CEM, > 100 µM (inactive); in the experiment with HCT-15, above 100 µM; in the experiment on HL-60, > 100 µM (inactive); with IGROV-1, > 100 µM (inactive). For the same compound, the GI50 in the experiment with M14, in the experiment on MOLT-4, in the experiment on OVCAR-4, in the experiment with SF-268, with SF-295 and in the experiment on SK-MEL-28 was > 100 µM (inactive) in each case. In addition, the GI50 in the experiment on SK-OV-3, in the experiment with SN12C, with SNB-19, in the experiment with SW-620, with TK-10 and in the experiment on U-251 was > 100 µM (inactive) throughout. The GI50 in the experiment on UACC-62 and with UO-31 was > 100 µM (inactive) in each case.
Consider `O=C(O)c1cnc(-n2[nH]c3c(c2=O)CCCC3)[nH]c1=O`, for which the GI50 in the experiment on 786-0 was > 100 µM (inactive); with CAKI-1, > 100 µM (inactive); with CCRF-CEM it was > 100 µM (inactive); with HCT-15, above 100 µM; with HL-60, > 100 µM (inactive); in the experiment with IGROV-1, > 100 µM (inactive). The GI50 in the experiment with M14, in the experiment with MOLT-4, in the experiment on OVCAR-4, with SF-268, with SF-295 and in the experiment on SK-MEL-28 was > 100 µM (inactive) throughout. The GI50 with SK-OV-3, in the experiment with SN12C, in the experiment on SNB-19, in the experiment on SW-620, in the experiment on TK-10 and in the experiment on U-251 was > 100 µM (inactive) in each case. Further, the GI50 in the experiment with UACC-62 and with UO-31 was > 100 µM (inactive) in each case.
For the compound `CCCCCCCCCCCCCCCCCCCCCCC(=O)N[C@H]1CCc2cc(OC)c(OC)c(OC)c2-c2ccc(SC)c(=O)cc21`, the GI50 is 40.2 µM (inactive) with 786-0; 46.7 µM (inactive) with CAKI-1; 30.1 µM (inactive) in the experiment with CCRF-CEM; 26.4 µM in the experiment on HCT-15; 17.1 µM (inactive) with HL-60; 49.1 µM (inactive) in the experiment on IGROV-1. For the same compound, the GI50 in the experiment on M14 is 27.5 µM (inactive); with MOLT-4 it was 27 µM (inactive); with OVCAR-4, > 100 µM (inactive); in the experiment on SF-268, 59.7 µM (inactive); with SF-295, 34.6 µM (inactive); with SK-MEL-28, 84.5 µM (inactive). For the same compound, the GI50 is 7.19 µM (inactive) in the experiment with SK-OV-3; 28.2 µM (inactive) in the experiment with SN12C; 39.1 µM (inactive) in the experiment with SNB-19; 30.3 µM (inactive) in the experiment with SW-620; 40.1 µM (inactive) in the experiment with TK-10; 24.2 µM (inactive) with U-251. For the same compound, the results for the GI50 in the experiment with UACC-62 and in the experiment with UO-31 were 40 µM (inactive) and 48 µM (inactive), respectively.
In the case of `CC1(C)C(O)C[C@]23CCC[C@](C)(C[C@@H](O)C12)C3` (stereo not given in full), the GI50 in the experiment on 786-0 was 32.9 µM (inactive); with CAKI-1, > 100 µM (inactive); with CCRF-CEM, > 100 µM (inactive); with HCT-15, above 100 µM; in the experiment on HL-60 it was > 100 µM (inactive); in the experiment with IGROV-1 it was > 100 µM (inactive). Also, the GI50 in the experiment on M14, in the experiment with MOLT-4, in the experiment with OVCAR-4, in the experiment on SF-268, in the experiment on SF-295 and with SK-MEL-28 was > 100 µM (inactive) in each case. Also, the GI50 in the experiment on SK-OV-3, in the experiment on SN12C, with SNB-19, in the experiment on SW-620, with TK-10 and in the experiment with U-251 was > 100 µM (inactive) in each case. For the same compound, the GI50 in the experiment on UACC-62 and in the experiment on UO-31 was > 100 µM (inactive) throughout.
Consider `O=C1Nc2ccccc2/C1=N/Nc1ccccc1[N+](=O)[O-]`, for which the GI50 was 14.5 µM (inactive) in the experiment on 786-0; 21.6 µM (inactive) in the experiment with CAKI-1; 91.6 µM (inactive) with CCRF-CEM; 55.5 µM in the experiment on HCT-15; > 100 µM (inactive) in the experiment with HL-60; 0.185 µM (active) in the experiment on IGROV-1. The GI50 is 87.5 µM (inactive) in the experiment with M14; 51.4 µM (inactive) with MOLT-4; 25.5 µM (inactive) in the experiment with OVCAR-4; 10 µM (inactive) in the experiment with SF-268; 56.9 µM (inactive) with SF-295; 75.9 µM (inactive) in the experiment on SK-MEL-28. Moreover, the GI50 in the experiment on SK-OV-3 was 17.1 µM (inactive); with SN12C, 40.7 µM (inactive); with SNB-19, 48.5 µM (inactive); with SW-620 it was 32.1 µM (inactive); in the experiment on TK-10, 69.2 µM (inactive); with U-251, 15.5 µM (inactive). Moreover, the values for the GI50 in the experiment with UACC-62 and in the experiment with UO-31 were 63.8 µM (inactive) and 24.3 µM (inactive), respectively.
Consider `COc1cc(C(c2c(O)c3ccccc3oc2=O)c2c(O)c3ccccc3oc2=O)ccc1O`, for which the GI50 is 20.2 µM (inactive) in the experiment on 786-0; 20.8 µM (inactive) in the experiment with CAKI-1; 28.8 µM (inactive) in the experiment with CCRF-CEM; 17.4 µM with HCT-15; 24.7 µM (inactive) with HL-60; 11.3 µM (inactive) in the experiment on IGROV-1. Further, the GI50 with M14 was 18.1 µM (inactive); in the experiment with MOLT-4, 21.1 µM (inactive); in the experiment with OVCAR-4 it was 49.1 µM (inactive); with SF-268, 21.5 µM (inactive); in the experiment with SF-295, 35.1 µM (inactive); with SK-MEL-28, 16.7 µM (inactive). Also, the GI50 was > 100 µM (inactive) in the experiment on SK-OV-3; 19.1 µM (inactive) with SN12C; 26.8 µM (inactive) with SNB-19; 23.7 µM (inactive) with SW-620; 20.3 µM (inactive) with TK-10; 22.9 µM (inactive) with U-251. The GI50 with UACC-62 is 18.5 µM (inactive); in the experiment on UO-31, 25.1 µM (inactive).
In the case of `CC[C@@H]1/C=C/C=C/C[C@H](C)[C@@H](O)[C@](C)(O)C(=O)[C@H](C)[C@@H](O)[C@H](C)C(=O)[C@H](C)[C@@H](O)[C@H](C)/C=C/C(=O)O[C@H]2[C@@H](C)[C@@H](CC1)O[C@]1(O[C@H](CC(C)O)[C@H](C)CC1=O)[C@@H]2C` (stereo not given in full), the GI50 with 786-0 was 4.79 µM (inactive); in the experiment with CAKI-1 it was 3.96 µM (inactive); in the experiment with CCRF-CEM, 3.56 µM (inactive); in the experiment on HCT-15, 3.28 µM; in the experiment on HL-60, 0.107 µM (active); with IGROV-1, 5.22 µM (inactive). Further, the GI50 with M14 was 3.14 µM (inactive); in the experiment with MOLT-4 it was 3.82 µM (inactive); in the experiment on OVCAR-4, 2.56 µM (inactive); in the experiment with SF-268, 3.71 µM (inactive); with SF-295 it was < 0.0025 µM (active); in the experiment with SK-MEL-28, 6 µM (inactive). The GI50 was 5.66 µM (inactive) with SK-OV-3; 3.74 µM (inactive) in the experiment on SN12C; < 0.0025 µM (active) in the experiment with SNB-19; 5.57 µM (inactive) in the experiment with SW-620; 1.22 µM (inactive) in the experiment with TK-10; < 0.0025 µM (active) in the experiment with U-251. Moreover, the GI50 in the experiment on UACC-62 is 3.22 µM (inactive); in the experiment on UO-31 it was 2.81 µM (inactive).
With `Cc1nnc(N/N=C2\C(=O)Nc3ccccc32)n1N`, the GI50 in the experiment with 786-0 is > 100 µM (inactive); with CAKI-1, > 100 µM (inactive); in the experiment on CCRF-CEM, > 100 µM (inactive); with HCT-15 it was above 100 µM; in the experiment with HL-60 it was 25.9 µM (inactive); with IGROV-1, > 100 µM (inactive). Further, the GI50 with M14, in the experiment on MOLT-4, in the experiment with OVCAR-4, with SF-268, in the experiment on SF-295 and with SK-MEL-28 was > 100 µM (inactive) each time. In addition, the GI50 with SK-OV-3, with SN12C, in the experiment with SNB-19, with SW-620, in the experiment on TK-10 and in the experiment with U-251 was > 100 µM (inactive) in each case. Further, the GI50 in the experiment on UACC-62 and in the experiment with UO-31 was > 100 µM (inactive) in each case.
Turning to `CN1CCOC(C(NC(=O)c2ccccc2)c2ccccc2)C1=O` (stereo not given), the GI50 was > 100 µM (inactive) in the experiment on 786-0; > 100 µM (inactive) in the experiment with CAKI-1; > 100 µM (inactive) in the experiment with CCRF-CEM; above 100 µM in the experiment with HCT-15; > 100 µM (inactive) in the experiment with HL-60; > 100 µM (inactive) in the experiment on IGROV-1. For the same compound, the GI50 in the experiment on M14, with MOLT-4, with OVCAR-4, in the experiment with SF-268, with SF-295 and in the experiment with SK-MEL-28 was > 100 µM (inactive) in each case. Moreover, the GI50 in the experiment on SK-OV-3, with SN12C, in the experiment on SNB-19, with SW-620, in the experiment on TK-10 and with U-251 was > 100 µM (inactive) in each case. In addition, the GI50 with UACC-62 and with UO-31 was > 100 µM (inactive) throughout.

Values taken from ChEMBL document CHEMBL1201862, “PubChem BioAssay data set” (2004).
